From US11331333B2, “Treatment of aberrant fibroblast proliferation” (Georg August Universitaet Goettingen Stiftung Oeffentlichen …, priority 2019, dated 2022)

Legend:
[1] = system: EYA1A^tg mice challenged with UUO; experiment: Unilateral ureteral obstruction (UUO) kidney fibrosis in EYA1A^tg mice; format: in vivo, mouse
Procedure: From 3 days before surgery, C57BL/6 (referred as wildtype) or transgenic mice overexpressing human splice variants EYA1A (rtTACMV;hEYA1A-pTreTight, referred to as EYA1A^tg) and EYA1C (rtTACMV;hEYA1C-pTreTight, referred to as EYA1C^tg) were treated with either vehicle buffer (glucose 5%) or DOX (2 mg/ml, Sigma, St. Louis, USA) within drinking water ad libidum and renewal every 2 days.
Mice were anesthetized with isoflurane inhalation (2-3%), analgesia was performed by subcutaneous injection of 0.1 mg/kg body weight per day Buprenorphine. The ureter was separated from the surrounding tissues and two ligatures were placed about 5 mm apart in upper two-thirds of the left ureter to obtain reliable obstruction. Mice were sacrificed 3, 7 or 10 days after ureteral obstruction for further analyses.
Mice were injected intraperitoneally with Na3VO4 (8 mg/kg i.p. once per day, Sigma, St. Louis, USA) or caffeine (12.5 mg/kg i.p. once per day, Sigma, St. Louis, USA) starting one day prior of surgery, control mice received equivalent volume of PBS or DMSO.
Mice were injected intraperitoneally with SCR7 (20 mg/kg i.p. every alternate day, Sigma, St. Louis, USA) starting one day prior of surgery, control mice received equivalent volume of DMSO.
The inventors obtained 25 nucleotide antisense morpholino sequences (Gene Tools, Philomath, USA). The in vivo morpholinos contain a covalently linked octaguanidine dendrimer as a delivery moiety to facilitate entry into cells in vivo. Mice were injected intraperitoneally with 12.5 mg/kg body weight in vivo morpholinos in saline at a final volume of 100 μL every other day starting two days prior of surgery. A control in vivo
Lentiviral pLenti-Sce1 was produced in 293T virus packaging cells after transfection using morpholino that targets a human β-globin intron mutation was used as standard control. In vivo morpholino sequences are those of SEQ ID NOs: 9 (EYA1A-VMO), 10 (53Bp1-VMO) and 16 (control).
Formalin-fixed, paraffin-embedded kidneys and hearts from mice, and HOPE-fixed, paraffin-embedded human specimens were sectioned at 3 μm, Masson's Trichrome Stain (MTS) was performed at the University Medicine Göttingen. For morphometric analysis of interstitial fibrosis in mice and human biopsies, we assessed the fibrotic area using cellSens (Olympus, Tokyo, Japan) software. Ten visual fields were selected randomly for each MTS stained section at 200× magnification and the relative interstitial fibrotic area was evaluated by using a 10 mm^2 graticule.
Formalin-fixed, paraffin-embedded kidney sections from mice as well as from HOPE-fixed, paraffin-embedded human specimens were deparaffinized in xylene and rehydrated in ethanol containing distilled water. For immunofluorescent staining, EYA1 isoform antisera or primary antibodies against αSMA (A5228, Sigma, St. Louis, USA), Collagen-1 (ab34710, Abcam Biochemicals, Cambridge, UK), γH2A.X^pS139 (ab2893, Abcam Biochemicals, Cambridge, UK), γH2A.X^pS139 (05-636, Merck Millipore, Billerica, UK), γH2A.X^pY142 (ab94602, Abcam Biochemicals, Cambridge, UK), p-Chk1^pS317 (12302P, Cell Signaling, Danvers, USA), p-Chk2^pT68 (2197S, Cell Signaling, Danvers, USA), Rpa1 (2267S, Cell Signaling, Danvers, USA), Rad51 (sc-8349, Santa Cruz Biotechnology, Dallas, USA), 53Bp1 (sc-22760, Santa Cruz Biotechnology, Dallas, USA), Xrcc4 (sc-8285, Santa Cruz Biotechnology, Dallas, USA) and GFP (MA5-15256, Thermo Fisher Scientific, Waltham, USA) were used, secondary antibodies were labeled with Alexa Fluor 488, 594 or 647 (Life Technologies, Carlsbad, USA). Renal basement membranes were stained with antibodies against Collagen-4 (1340-30, SouthernBiotech, Birmingham, USA). Nuclear staining was performed using 4′,6-diamidino-2-phenylindole (DAPI, Vector Laboratories, Burlingame, USA). Quantifications were performed per high power field at 400× magnification, representative confocal pictures using an LSM 780 confocal laser scanning microscope (Zeiss, Oberkochen, Germany) are shown.

[2] = target: T1, EYA1A (Homo sapiens, UniProt Q99502); experiment: Screen of NCI Mechanistic Set II for EYA1A phosphatase activity with pNPP substrate; format: biochemical; details: transgenic fibroblasts, compared to control cultures
T1 construct: expressed in transfected cells; host or cells: transgenic fibroblasts
T1 sequence (Q99502 1-559 isoform Q99502-2): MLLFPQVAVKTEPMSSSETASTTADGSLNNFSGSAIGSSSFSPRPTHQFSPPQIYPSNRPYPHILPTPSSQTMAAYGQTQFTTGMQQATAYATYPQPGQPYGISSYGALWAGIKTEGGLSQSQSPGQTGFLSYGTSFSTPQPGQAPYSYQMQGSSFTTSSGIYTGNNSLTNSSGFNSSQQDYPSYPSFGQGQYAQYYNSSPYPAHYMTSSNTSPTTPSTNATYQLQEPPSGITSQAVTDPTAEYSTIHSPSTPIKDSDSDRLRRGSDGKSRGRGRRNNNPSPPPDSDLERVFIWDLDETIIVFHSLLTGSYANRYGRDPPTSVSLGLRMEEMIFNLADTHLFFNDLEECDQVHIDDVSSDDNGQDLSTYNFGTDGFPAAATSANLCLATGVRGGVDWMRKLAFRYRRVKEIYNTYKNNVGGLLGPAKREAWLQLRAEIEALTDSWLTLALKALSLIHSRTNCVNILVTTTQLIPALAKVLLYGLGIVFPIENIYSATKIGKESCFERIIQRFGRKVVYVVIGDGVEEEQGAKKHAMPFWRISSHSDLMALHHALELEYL
Procedure: FIG. 14 illustrates results of a screen for additional compounds for selective modulation of EYA1A phosphatase activity. The EYA1A phosphatase activity was estimated using p-nitrophenyl phosphate (pNPP) substrate. Briefly, phosphatase activity was determined in transgenic fibroblasts and pNP production was determined in comparison to control cultures. Among 736 compounds contained in the NCI mechanistic set (NCI Mechanistic Set II), 228 inhibitors of EYA1A phosphatase activity were identified.
With regard to modulators of the phosphotyrosine phosphatase activity of EYA1, the inventors screened a small molecule library, namely the NCI “Mechanistic Set II library”, obtained from the open chemical repository of the Developmental Therapeutics Program (DTP) of the National Cancer Institute, illustrated by FIG. 14.
p-Nitrophenyl Phosphate (PNPP) is a non-proteinaceous, non-specific substrate used in the art to assay protein, alkaline and acid phosphatases. The PNPP phosphatase activity is measured using a continuous or single-point spectrophotometric assay based on the ability of phosphatases to catalyze the hydrolysis of PNPP to p-nitrophenol, a chromogenic product with absorbance at 405 nm. Any available protocol can be followed to determine phosphatase activity using pNPP.

[3] = in vivo morpholino 12.5 mg/kg i.p. every other day, EYA1A^tg mice, UUO, 10 days
[4] = SCR7 20 mg/kg i.p. every alternate day, EYA1A overexpressing mice, 10 days after ureteral obstruction

Molecule | EYA1A phosphatase activity [2] | also measured
53Bp1-VMO: in vivo morpholino, SEQ ID NO: 10, with covalently linked octaguanidine dendrimer, blocking 53Bp1 translation (TCCATCTGCTCCCCTGGCATCC; all phosphorodiamidate morpholino (PMO); octaguanidine dendrimer covalently linked, position not given here, further chemistry not fully specified) |  | presence of Rpa1 (indicative of HR) ([1]; in vivo morpholino 12.5 mg/kg i.p. every other day, EYA1A-overexpressing mice, UUO): increased presence of Rpa1; 53Bp1 within chronically injured kidneys ([1]; in vivo morpholino 12.5 mg/kg i.p. every other day, EYA1A^tg mice, UUO): Depletion of 53Bp1; fibroblast accumulation [1, 3]: attenuated; renal fibrosis [1, 3]: attenuated
Cc1c2ccncc2cc2c1[nH]c1ccccc12 [NSC 87206, 5-Methyl-6H-pyrido(4,3-b)carbazole] | Strong inhibitors | 
COc1cc2cc3c4cc(OC)c(OC)cc4cc[n+]3c(C)c2cc1OC.O=C([O-])CS(=O)(=O)O [NSC No. 154890, Dibenzo(a,g)quinolizinium, 2,3,10,11-tetramethoxy-8-methyl-sulfoacetate] | Strong inhibitors | 
N#CC(=C1C=CC(=NO)C=C1)c1ccc(Cl)cc1 [NSC No. 405158, alpha-(p-chlorophenyl)-4-oxo-2,5-cyclohexadiene-δ1,α-acetonitrile oxime] | Strong inducers | 
O=c1[nH]c(=S)[nH]c(N=Cc2ccccc2)c1N=Cc1ccccc1 [SCR7] |  | fibroblast accumulation [1, 4]: significantly reduced; fibrosis [1, 4]: significantly reduced
EYA1A-VMO: in vivo morpholino, SEQ ID NO: 9, with covalently linked octaguanidine dendrimer, specifically inhibiting EYA1A translation (CTGCAACTTGAGGAAACAGCAACAT; all phosphorodiamidate morpholino (PMO); octaguanidine dendrimer covalently linked, position not given here, further chemistry not fully specified) |  | pro-fibrotic effects ([1]; in vivo morpholino 12.5 mg/kg i.p. every other day, EYA1A overexpressing mice, 10 days after ureteral obstruction): reversed pro-fibrotic effects
[Mo12O36(PO4)] disodium salt [NSC No. 622116] | Strong inhibitors | 

Continued, in another order:

EYA1A phosphatase activity [2] | Molecule | also measured
Strong inducers | O=c1ccc(-c2ccccc2)nn1-c1nc2ccccc2s1 [NSC No. 629659, 2-(2-benzothiazolyl)-6-phenyl-3(2H)-pyridazinone] | 
Strong inducers | O=C1C(c2cnc3ccccc3n2)=C(O)c2ccccc21 [NSC No. 634224, 3-hydroxy-2-(2-quinoxalinyl)-1-indenone] | 
Strong inhibitors | O=C1C=C(Nc2ccccc2C(=O)CC(=O)C(=O)Nc2ccc(Cl)cc2)c2ccccc2C1=O [NSC No. 641253] | 
Strong inducers | CN(C)c1cccc(/C=C(\C#N)c2ccccc2)c1 [NSC No. 667251, (Z)-3-[3-(dimethylamino)phenyl]-2-phenylprop-2-enenitrile] | 
Strong inhibitors | Hexapotassium hexatriaconta-p-oxooctadecaoxobis [μ9-[phosphato(3-)-κO:κO:κO:κO′:κO′:κO″:κO″:κO′″:κO′″]]octadeca-molybdate(6-) [NSC No. 622124] | 
